Laboratory results taken from paper PMC3566143, “Pantothenamides Are Potent, On-Target Inhibitors of Plasmodium falciparum Growth When Serum Pantetheinase Is Inactivated” (PLoS ONE, 2013).
Like-named read-outs stand apart in the source and are kept apart here.

How the values were obtained:
[1] = test system: erythrocytic stage P. falciparum parasites (strain 3D7); assay: SYBR Green I-based in vitro growth assay (96 h); format: cell-based, Plasmodium falciparum; conditions: for IC50: 1 µM pantothenate, 96 h; for effect on parasite growth in fresh Albumax-complete RPMI: fresh medium, up to 200 µM (highest concentration tested)
Procedure: Erythrocytic stage P. falciparum parasites (strain 3D7) were maintained within human erythrocytes in continuous culture essentially as described previously, [25]. P. falciparum-infected erythrocytes were routinely cultured in RPMI 1640 medium supplemented with 25 mM HEPES, 20 mM D-glucose, 200 µM hypoxanthine, 24 mg/L gentamycin and Albumax II (0.6%, w/v), which, hereafter is referred to as Albumax-complete RPMI. For several days prior to carrying out the assays testing the effect of compounds on the growth of P. falciparum in medium supplemented with human serum (instead of Albumax II), the parasites were cultured in the same medium mentioned above, except that human serum (10%, v/v, pooled from different blood donors) was used rather than Albumax II. This medium is hereafter referred to as human serum-complete RPMI.
The in vitro antiplasmodial activity of test compounds was determined using the malaria SYBR Green I-based fluorescence assay described by Smilkstein et al., with minor modifications. Briefly, P. falciparum-infected erythrocytes were incubated in culture medium containing two-fold dilutions of the test compounds in 96-well microtiter plates. Assays were initiated with ring-stage P. falciparum-infected erythrocytes at a hematocrit and parasitemia of 1%. Wells containing infected erythrocytes in the presence of chloroquine (0.25–2 µM) served as zero growth controls and wells containing infected erythrocytes in the absence of chloroquine or test compounds served as 100% parasite growth controls. Plates were incubated at 37°C under an atmosphere of 96% nitrogen, 3% carbon dioxide and 1% oxygen for 96 h, before 100 µL from each well was mixed with 100 µL of SYBR Safe DNA gel stain (0.2 µL/mL) in 20 mM Tris, pH 7.5, 5 mM ethylenediaminetetraacetic acid (EDTA), 0.008% (w/v) saponin, 0.08% (v/v) Triton X-100, in a second 96-well microtitre plate. Fluorescence was measured using a FLUOstar OPTIMA multidetection microplate reader from BMG LABTECH with excitation and emission wavelengths of 490 and 520 nm, respectively. The 50% inhibitory concentration (IC50) of each test compound under each test condition was calculated by fitting the data to a sigmoidal curve (typically y = a/(1+ (x/x0)^b) using nonlinear least squares regression (SigmaPlot, Systat Software) and averaging the IC50 estimates from independent experiments.
The antiplasmodial activity of test compounds was assessed in media that had been subjected to different pre-incubations. “Fresh” medium refers to medium that was stored for a maximum of 48 h at 4°C, and incubated at 37°C for a maximum of 1 h, prior to use. “Aged” medium refers to medium that was stored for a minimum of one week at 4°C and incubated intermittently at 37°C, or medium incubated continuously at 37°C for 40 h soon after preparation. As indicated at the relevant positions within the “Results” section, for some experiments the fresh medium used was, more specifically, medium used immediately following preparation, and the aged medium used was, more specifically, medium that was incubated at 37°C for 40 h immediately prior to use.

P. falciparum PanK = assay: [14C]pantothenate phosphorylation assay with P. falciparum lysate; format: biochemical, Plasmodium falciparum; conditions: 100 µM pantothenamide, 0.2 µM [14C]pantothenate, 10 min
Procedure: To assess the effect of the pantothenamides on pantothenate phosphorylation by P. falciparum PanK, the phosphorylation of [^14C]pantothenate by P. falciparum lysates was measured in the presence and absence of a single concentration of each pantothenamide. P. falciparum lysate was prepared from trophozoite stage parasites “isolated” from their host erythrocyte by treatment with 0.05% (w/v) saponin (essentially as described by Saliba et al.), and washed (five times) in HEPES-buffered saline (125 mM NaCl, 5 mM KCl, 20 mM D-glucose, 25 mM HEPES, 1 mM MgCl2, pH 7.1). Lysates were prepared as described by van Schalkwyk et al., except that 10 mM potassium phosphate, pH 7.4 (rather than 10 mM Tris, pH 7.4), was used to lyse the cells. Aliquots of lysate were stored at −20°C. The concentration of cell lysates was determined from cell counts made using an improved Neubauer hemocytometer.
[^14C]Pantothenate phosphorylation was assayed using the Somogyi reagent essentially as described by Saliba et al., except that pantothenate phosphorylation was terminated by heat denaturation (rather than acid denaturation) of the protein in reaction aliquots. Briefly, P. falciparum lysate was added to solutions (at 37°C) of 50 mM Tris, 5 mM ATP, 5 mM MgCl2, at pH 7.4, containing [^14C]pantothenate (at a final concentration of 0.01 µCi/mL, or 0.2 µM), and a pantothenamide (at a final concentration of 100 µM) or an equivalent volume of solvent. Typically, lysate prepared from 5.4–6.5×10^7 parasites was present in each mL of reaction solution. Zero phosphorylation control reactions were prepared by adding a corresponding volume of 10 mM potassium phosphate instead of parasite lysate. Following a ten minute incubation at 37°C (a period during which pantothenate phosphorylation increased linearly with time in the absence of inhibitors) 200 µL aliquots of the [^14C]pantothenate phosphorylation reactions were transferred in duplicate to microcentrifuge tubes, and immediately incubated at 95°C for 10 min to terminate phosphorylation. Terminated reaction samples were centrifuged at 15 800×g for 10 min to pellet the denatured protein, before two aliquots of each supernatant (typically 80 µL) were transferred to new microcentrifuge tubes. To one aliquot, 500 µL Somogyi reagent was added, and to the other, 500 µL water was added. The samples were processed for determination of phosphorylated [^14C]pantothenate as described previously.

[2] = Plasmodium falciparum, 3D7, 96 h, fresh Albumax-complete RPMI, read-out: IC50 against P. falciparum, fresh medium, 1 μM pantothenate
[3] = Plasmodium falciparum, 3D7, aged Albumax-complete RPMI (37°C for 40 h), read-out: IC50 against P. falciparum, aged medium, 1 μM pantothenate
[4] = fresh Albumax-complete RPMI, IC50 at 100 µM pantothenate / IC50 at 1 µM pantothenate

CC(C)(CO)[C@@H](O)C(=O)NCCC(=O)NCCN1CCOCC1 [Compound 8]
IC50 [1, 2]: > 200 µM
IC50 [1, 3]: > 200 µM
Inhibition of pantothenate phosphorylation at 100 μM (P. falciparum PanK): 94 ± 5%

COc1cc(CNC(=O)CCNC(=O)[C@H](O)C(C)(C)CO)cc(OC)c1OC [Compound 6]
IC50 [1, 2]: > 200 µM
IC50 [1, 3]: > 200 µM
Inhibition of pantothenate phosphorylation at 100 μM (P. falciparum PanK): 96 ± 2%

CC(C)(CO)[C@@H](O)C(=O)NCCCO [pantothenol, reference compound]
inhibition at 2000 µM ([1]; Plasmodium falciparum, 3D7, 2 mM, Albumax-complete RPMI supplemented with 100 µM pantothenate, fresh and aged, read-out: inhibition of growth at highest concentration tested with 100 µM pantothenate): < 50%
effect of additional Albumax II on activity in aged medium ([1]; aged medium + additional Albumax II (0.6%, w/v)): unaffected
activity in aged versus fresh Albumax-complete RPMI ([1]; aged vs fresh medium, P = 0.32): comparable in aged and fresh medium

COc1ccc(CCNC(=O)CCNC(=O)[C@H](O)C(C)(C)CO)cc1OC [Compound 4]
IC50 [1, 2]: > 200 µM
IC50 [1, 3]: > 200 µM
Inhibition of pantothenate phosphorylation at 100 μM (P. falciparum PanK): 100%

CC1C(NC(=O)CCNC(=O)C(O)C(C)(C)CO)CC2CC1C2(C)C (centres unmarked) [Compound 10]
IC50 [1, 2]: > 200 µM
IC50 [1, 3]: > 200 µM
Inhibition of pantothenate phosphorylation at 100 μM (P. falciparum PanK): 100%

CCOCCCNC(=O)CCNC(=O)[C@H](O)C(C)(C)CO [Compound 19]
IC50 [1, 2]: 49 ± 8 µM
IC50 [1, 3]: 0.27 ± 0.06 µM
fold-increase in IC50 following supplementation with 100 µM pantothenate, aged medium ([1]; aged Albumax-complete RPMI, IC50 at 100 µM pantothenate / IC50 at 1 µM pantothenate): 24±1 times
fold-increase in IC50 following supplementation with 100 µM pantothenate, fresh medium [1, 4]: 1.7±0.4 times
Inhibition of pantothenate phosphorylation at 100 μM (P. falciparum PanK): 96 ± 4%

CCSCCNC(=O)CCNC(=O)[C@H](O)C(C)(C)CO [Compound 17]
IC50 [1, 2]: 44 ± 5 µM
IC50 [1, 3]: 0.067 ± 0.002 µM
Inhibition of pantothenate phosphorylation at 100 μM (P. falciparum PanK): 95 ± 5%

CCCNC(=O)CCNC(=O)[C@H](O)C(C)(C)CO [Compound 11]
IC50 [1, 2]: 134 ± 22 µM
IC50 [1, 3]: 0.34 ± 0.01 µM
Inhibition of pantothenate phosphorylation at 100 μM (P. falciparum PanK): 100%

CSCCNC(=O)CCNC(=O)[C@H](O)C(C)(C)CO [Compound 14]
IC50 [1, 2]: > 200 µM
IC50 [1, 3]: > 200 µM
effect on parasite growth in fresh Albumax-complete RPMI [1]: little effect
Inhibition of pantothenate phosphorylation at 100 μM (P. falciparum PanK): 100%

COCCNC(=O)CCNC(=O)[C@H](O)C(C)(C)CO [Compound 15]
IC50 [1, 2]: > 200 µM
IC50 [1, 3]: > 200 µM
effect on parasite growth in fresh Albumax-complete RPMI [1]: lacked antiplasmodial activity
Inhibition of pantothenate phosphorylation at 100 μM (P. falciparum PanK): 100%

CC(CCc1ccccc1)NC(=O)CCNC(=O)[C@H](O)C(C)(C)CO (some centres unmarked) [Compound 5]
IC50 [1, 2]: > 200 µM
IC50 [1, 3]: > 200 µM
Inhibition of pantothenate phosphorylation at 100 μM (P. falciparum PanK): 94 ± 3%

CSCCCNC(=O)CCNC(=O)[C@H](O)C(C)(C)CO [Compound 18]
IC50 [1, 2]: 76 ± 12 µM
IC50 [1, 3]: 0.23 ± 0.06 µM
Inhibition of pantothenate phosphorylation at 100 μM (P. falciparum PanK): 98 ± 2%

CCCCCCCNC(=O)CCNC(=O)[C@H](O)C(C)(C)CO [Compound 2]
IC50 [1, 2]: > 200 µM
Inhibition of pantothenate phosphorylation at 100 μM (P. falciparum PanK): 99 ± 1%

CC(C)=CCC/C(C)=C/CNC(=O)CCNC(=O)[C@H](O)C(C)(C)CO [Compound 13]
IC50 [1, 2]: 66 ± 4 µM
IC50 [1, 3]: 150 ± 5 µM
fold-increase in IC50 following supplementation with 100 µM pantothenate, fresh medium [1, 4]: 1±0.1 times
Inhibition of pantothenate phosphorylation at 100 μM (P. falciparum PanK): 100%

COc1ccc(CNC(=O)CCNC(=O)[C@H](O)C(C)(C)CO)cc1 [Compound 9]
IC50 [1, 2]: > 200 µM
Inhibition of pantothenate phosphorylation at 100 μM (P. falciparum PanK): 99 ± 1%

CC(C)(CO)[C@@H](O)C(=O)NCCC(=O)N1CCN(Cc2ccccc2)CC1 [Compound 7]
IC50 [1, 2]: > 200 µM
IC50 [1, 3]: > 200 µM
Inhibition of pantothenate phosphorylation at 100 μM (P. falciparum PanK): 98 ± 2%

CC(C)(CO)[C@@H](O)C(=O)NCCC(=O)NCCc1ccccc1 [Compound 3]
IC50 ([1]; Plasmodium falciparum, 3D7, 96 h, aged Albumax-complete RPMI, read-out: IC50 against P. falciparum in aged medium): 0.02 ± 0.002 µM
Inhibition of pantothenate phosphorylation at 100 μM (P. falciparum PanK): 100%

CC(C)(CO)[C@@H](O)C(=O)NCCC(=O)NCCO [Compound 16]
IC50 [1, 2]: > 200 µM
effect on parasite growth in fresh Albumax-complete RPMI [1]: without effect
Inhibition of pantothenate phosphorylation at 100 μM (P. falciparum PanK): 100%

COCCCNC(=O)CCNC(=O)[C@H](O)C(C)(C)CO [Compound 21]
IC50 [1, 2]: 166 ± 18 µM
IC50 [1, 3]: 1.9 ± 0.5 µM
Inhibition of pantothenate phosphorylation at 100 μM (P. falciparum PanK): 98 ± 2%

CC(C)(CO)[C@@H](O)C(=O)NCCC(=O)NCCCO [Compound 20]
IC50 [1, 2]: > 200 µM
effect on parasite growth in fresh Albumax-complete RPMI [1]: without effect
Inhibition of pantothenate phosphorylation at 100 μM (P. falciparum PanK): 94 ± 6%

CCOCCNC(=O)CCNC(=O)[C@H](O)C(C)(C)CO [Compound 22]
IC50 [1, 2]: 162 ± 20 µM
IC50 [1, 3]: 1.4 ± 0.1 µM
Inhibition of pantothenate phosphorylation at 100 μM (P. falciparum PanK): 100%

CCCCCNC(=O)CCNC(=O)[C@H](O)C(C)(C)CO [Compound 1]
IC50 [1, 2]: 124 ± 15 µM
IC50 [1, 3]: 2 ± 0.2 µM
Inhibition of pantothenate phosphorylation at 100 μM (P. falciparum PanK): 99 ± 1%
